Laboratory results reported in patent publication US8222020B2, “Biologically pure strain of Lactobacillus fermentum, strain Ess-1” (SCA Hygiene Products AB, priority 2006, dated 2012).

Test system: C. albicans
Experiment: Screening II: Candida growth in Lactobacillus cell-free filtrate (LCF), visual turbidity scale 5 to 0
Format: cell-based, Candida albicans
Details: acids 50 mM, salts 0.3%; 20 hours at 37° C.
Source text: Clinical isolates of Candida albicans and Candida glabrata were used as test strains. These were isolated from the vagina of women with vaginal candidiasis and from healthy females. Suspensions of lactobacilli grown in dMRSs broth (MRS broth without addition of sodium acetate) were centrifuged and sterile filtered. The filtrate is henceforth called Lactobacillus Cell-free Filtrate, LCF. A specified volume was transferred to wells of a micro titre plate and was let to air dry and thereafter resuspended in sterile distilled water to a concentration three times higher and transferred to 96-wells micro titre plates. Candida was added to all vials (three isolates of C. albicans and C. glabrata, respectively, were used). The inhibition was evaluated by visual observation of turbidity and graduated by two persons using a template on a scale from five to zero. […] The plates were incubated for 20 hours at 37° C. and the candida growth in the vials was visually evaluated and graduated from five to zero. […] The inhibition was evaluated by visual observation of turbidity and graduated by two persons using a template on a scale from five to zero. […] The plates were incubated for 20 hours at 37° C. and the candida growth in the wells was visually evaluated and graduated from five to zero.

Compound | effect of acids and acid salts on the growth of C. albicans
CCC(=O)[O-].[Na+] [Sodium propionate] | most extended effect
CCC(=O)O [propionic acid] | most extended effect
